Results published in PubChem BioAssay AID248 (DTP/NCI, 2004).
Values joined by “and” are separate entries in the source; they are usually repeats but may differ in a detail not shown here. Identical values can stand only once. Toxic doses and inconclusive results are not listed. No stated cut-off is given here; in the data, active means T/C of 150% or more; inactive means T/C below 125%.

Test system: L1210 leukemia ip in BDF1 mice, survival T/C
Test: NCI In Vivo Anticancer Drug Screen. Data for tumor model L1210 Leukemia (intraperitoneal) in B6D2F1 (BDF1) mice
Conditions: endpoint: mean survival time, higher = longer survival
Outline: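 Tumor was transplanted into mice, which were then dosed with test compound or vehicle alone. Survival was recorded for each group, and the treated figure was expressed relative to the control figure.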

[1] = dose: 50.0 mg/kg/injection, schedule: Q01DX001 (ip), vehicle: saline
[2] = dose: 100.0 mg/kg/injection, schedule: Q01DX001 (ip), vehicle: saline
[3] = dose: 200.0 mg/kg/injection, schedule: Q01DX001 (ip), vehicle: saline
[4] = dose: 100.0 mg/kg/injection, schedule: Q01DX001 (ip), vehicle: Klucel (hydroxypropylcellulose) (HPC)
[5] = dose: 200.0 mg/kg/injection, schedule: Q01DX001 (ip), vehicle: Klucel (hydroxypropylcellulose) (HPC)
[6] = dose: 400.0 mg/kg/injection, schedule: Q01DX001 (ip), vehicle: saline
[7] = dose: 100.0 mg/kg/injection, schedule: Q01DX009 (ip), vehicle: saline with Tween-80
[8] = dose: 100.0 mg/kg/injection, schedule: Q04DX003 (ip), vehicle: saline with Tween-80
[9] = dose: 200.0 mg/kg/injection, schedule: Q01DX009 (ip), vehicle: saline with Tween-80
[10] = dose: 200.0 mg/kg/injection, schedule: Q04DX003 (ip), vehicle: saline with Tween-80
[11] = dose: 100.0 mg/kg/injection, schedule: Q04DX003 (ip), vehicle: Klucel (hydroxypropylcellulose) (HPC)
[12] = dose: 200.0 mg/kg/injection, schedule: Q04DX003 (ip), vehicle: Klucel (hydroxypropylcellulose) (HPC)
[13] = dose: 400.0 mg/kg/injection, schedule: Q04DX003 (ip), vehicle: Klucel (hydroxypropylcellulose) (HPC)
[14] = dose: 400.0 mg/kg/injection, schedule: Q01DX009 (ip), vehicle: saline with Tween-80
[15] = dose: 100.0 mg/kg/injection, schedule: Q01DX009 (ip), vehicle: Klucel (hydroxypropylcellulose) (HPC)
[16] = dose: 100.0 mg/kg/injection, schedule: Q04DX002 (ip), vehicle: saline
[17] = dose: 200.0 mg/kg/injection, schedule: Q01DX009 (ip), vehicle: Klucel (hydroxypropylcellulose) (HPC)
[18] = dose: 15.0 mg/kg/injection, schedule: Q01DX Z (ip), vehicle: carboxymethylcellulose (CMC)
[19] = dose: 30.0 mg/kg/injection, schedule: Q01DX Z (ip), vehicle: carboxymethylcellulose (CMC)
[20] = dose: 60.0 mg/kg/injection, schedule: Q01DX Z (ip), vehicle: carboxymethylcellulose (CMC)
[21] = dose: 120.0 mg/kg/injection, schedule: Q01DX Z (ip), vehicle: carboxymethylcellulose (CMC)
[22] = dose: 240.0 mg/kg/injection, schedule: Q01DX Z (ip), vehicle: carboxymethylcellulose (CMC)

Measured: T/C

CCC(Br)(CC)C(=O)c1ccc(OCC(=O)O)c(Cl)c1Cl
inactive: [1] 104 % of control | [2] 96 % of control | [3] 102 % of control

CCCCCCCCCCCCCCBr
inactive: dose: 37.5 mg/kg/injection, schedule: Q01DX Z (ip), vehicle: carboxymethylcellulose (CMC) 100 % of control | dose: 75.0 mg/kg/injection, schedule: Q01DX Z (ip), vehicle: carboxymethylcellulose (CMC) 100 % of control | [4] 107 % of control | dose: 150.0 mg/kg/injection, schedule: Q01DX Z (ip), vehicle: carboxymethylcellulose (CMC) 100 % of control | [5] 98 % of control | dose: 300.0 mg/kg/injection, schedule: Q01DX Z (ip), vehicle: carboxymethylcellulose (CMC) 91 % of control | dose: 400.0 mg/kg/injection, schedule: Q01DX001 (ip), vehicle: Klucel (hydroxypropylcellulose) (HPC) 94 % of control

Cn1[nH]c(=S)c(=O)[nH]c1=O
inactive: [2] 111 % of control | [3] 106 % of control | [6] 101 % of control

NC(=O)C1CCCN1Cc1ccc2c(c1)OCO2 (stereo not given)
inactive: [2] 97 % of control | [3] 94 % of control | [6] 94 % of control

CCOC(=O)c1ccc(NC(=O)c2ccc(Cl)cc2Cl)cc1
inactive: dose: 50.0 mg/kg/injection, schedule: Q04DX003 (ip), vehicle: saline with Tween-80 102 % of control | [7] 96 % of control and 90 % of control | dose: 100.0 mg/kg/injection, schedule: Q04DX002 (ip), vehicle: saline with Tween-80 93 % of control and 113 % of control | [8] 98 % of control | [9] 97 % of control and 110 % of control | dose: 200.0 mg/kg/injection, schedule: Q04DX002 (ip), vehicle: saline with Tween-80 95 % of control and 91 % of control | [10] 98 % of control | dose: 400.0 mg/kg/injection, schedule: Q04DX002 (ip), vehicle: saline with Tween-80 102 % of control and 92 % of control

CCCCOB(OCCCC)c1cccc(B(OCCCC)OCCCC)c1
inactive: [2] 89 % of control | [3] 101 % of control | [6] 117 % of control

O=C(O)c1ccc(B(O)O)cc1
inactive: [11] 103 % of control | [12] 103 % of control | [13] 93 % of control

COC(=O)c1nc(N)n[nH]1
inactive: dose: 100.0 mg/kg/injection, schedule: Q01DX001 (ip), vehicle: other 110 % of control | [7] 106 % of control | dose: 100.0 mg/kg/injection, schedule: Q04DX003 (ip), vehicle: other 102 % of control | dose: 200.0 mg/kg/injection, schedule: Q01DX001 (ip), vehicle: other 95 % of control | [9] 94 % of control | dose: 200.0 mg/kg/injection, schedule: Q04DX003 (ip), vehicle: other 105 % of control | dose: 400.0 mg/kg/injection, schedule: Q01DX001 (ip), vehicle: other 97 % of control | [14] 95 % of control | dose: 400.0 mg/kg/injection, schedule: Q04DX003 (ip), vehicle: other 102 % of control

C=C(Cl)COC(=O)C(C)O (stereo not given)
inactive: dose: 25.0 mg/kg/injection, schedule: Q01DX001 (ip), vehicle: Klucel (hydroxypropylcellulose) (HPC) 98 % of control | dose: 50.0 mg/kg/injection, schedule: Q01DX001 (ip), vehicle: Klucel (hydroxypropylcellulose) (HPC) 96 % of control | [4] 100 % of control

OCCOc1nc(OCCO)c(Cl)c(C(Cl)(Cl)Cl)n1
inactive: [7] 98 % of control | [9] 93 % of control | [14] 86 % of control

O=c1[nH]c(SCc2ccccc2[N+](=O)[O-])nc2nc[nH]c12
inactive: [15] 90 % of control | dose: 100.0 mg/kg/injection, schedule: Q04DX002 (ip), vehicle: Klucel (hydroxypropylcellulose) (HPC) 98 % of control | [16] 94 % of control | [17] 90 % of control | dose: 200.0 mg/kg/injection, schedule: Q04DX002 (ip), vehicle: Klucel (hydroxypropylcellulose) (HPC) 94 % of control | dose: 200.0 mg/kg/injection, schedule: Q04DX002 (ip), vehicle: saline 97 % of control | dose: 400.0 mg/kg/injection, schedule: Q01DX009 (ip), vehicle: Klucel (hydroxypropylcellulose) (HPC) 93 % of control | dose: 400.0 mg/kg/injection, schedule: Q04DX002 (ip), vehicle: Klucel (hydroxypropylcellulose) (HPC) 97 % of control | dose: 400.0 mg/kg/injection, schedule: Q04DX002 (ip), vehicle: saline 97 % of control

CC(CNC1=NCCN1)c1cccc2ccccc12 (stereo not given)
inactive: dose: 50.0 mg/kg/injection, schedule: Q01DX009 (ip), vehicle: Klucel (hydroxypropylcellulose) (HPC) 111 % of control | [15] 103 % of control | [17] 108 % of control

CCOC(=O)N/N=C\C(C)=N\NC(=O)OCC
inactive: [18] 105 % of control | [19] 98 % of control | [20] 97 % of control and 105 % of control | [21] 94 % of control and 97 % of control | [22] 96 % of control | dose: 480.0 mg/kg/injection, schedule: Q01DX Z (ip), vehicle: carboxymethylcellulose (CMC) 87 % of control

Oc1c(I)cc(I)c2cccnc12
inactive: [4] 102 % of control | [5] 106 % of control

Cc1cccc2c(N=Nc3ccccc3[N+](=O)[O-])c(O)[nH]c12
inactive: [2] 101 % of control | [6] 97 % of control

O=[N+]([O-])/C(N=Nc1ccc(Br)cc1)=N\Nc1ccc(Br)cc1
inactive: dose: 75.0 mg/kg/injection, schedule: Q01DX001 (ip), vehicle: acetone 87 % of control | dose: 150.0 mg/kg/injection, schedule: Q01DX001 (ip), vehicle: acetone 89 % of control

CC(C)c1cc(O)ccc1N(C)C (tested in a mixture with another compound)
inactive: dose: 3.2 micrograms/kg/injection, schedule: Q01DX009 (ip), vehicle: saline 97 % of control | dose: 8.0 micrograms/kg/injection, schedule: Q01DX009 (ip), vehicle: saline 90 % of control | dose: 16.0 micrograms/kg/injection, schedule: Q01DX009 (ip), vehicle: saline 87 % of control | dose: 32.0 micrograms/kg/injection, schedule: Q01DX009 (ip), vehicle: saline 90 % of control

CCOC(=O)C(C(=O)OCC)c1c[n+]([O-])c2ccccc2c1[N+](=O)[O-]
inactive: dose: 100.0 mg/kg/injection, schedule: Q01DX001 (ip), vehicle: carboxymethylcellulose (CMC) 93 % of control | dose: 200.0 mg/kg/injection, schedule: Q01DX001 (ip), vehicle: carboxymethylcellulose (CMC) 98 % of control | dose: 400.0 mg/kg/injection, schedule: Q01DX001 (ip), vehicle: carboxymethylcellulose (CMC) 98 % of control

O=[N+]([O-])c1cc(S(=O)(=O)c2ccc(O)c([N+](=O)[O-])c2)ccc1O
inactive: dose: 25.0 mg/kg/injection, schedule: Q04DX002 (ip), vehicle: saline 98 % of control | dose: 50.0 mg/kg/injection, schedule: Q04DX002 (ip), vehicle: saline 98 % of control | [16] 98 % of control and 104 % of control

O=C(N/C(=C/c1ccc([N+](=O)[O-])cc1)C(=O)c1ccccc1)c1ccc([N+](=O)[O-])cc1
inactive: [1] 101 % of control | [2] 103 % of control | [3] 97 % of control | [6] 90 % of control

COc1cc(NC2=C(Cl)C(=O)C(Nc3cc(OC)c(OC)c(OC)c3)=C(Cl)C2=O)cc(OC)c1OC
inactive: [11] 119 % of control | [12] 95 % of control | [13] 98 % of control

CC(=O)N\C(N)=N/N=C\C(C)=N/N=C(\N)NC(C)=O
inactive: [18] 94 % of control | [19] 94 % of control | [20] 97 % of control and 100 % of control | [21] 94 % of control and 102 % of control | [22] 109 % of control

N#CCC[CH2][Sn]([Br])([Br])[c]1ccccc1
inactive: dose: 3.12 mg/kg/injection, schedule: Q04DX003 (ip), vehicle: saline 91 % of control | dose: 6.25 mg/kg/injection, schedule: Q04DX003 (ip), vehicle: saline 96 % of control | dose: 12.5 mg/kg/injection, schedule: Q04DX003 (ip), vehicle: saline 91 % of control

CCOc1c(N2CCOCC2)c(=O)c1=O
inactive: [7] 103 % of control | [8] 93 % of control | [9] 97 % of control | [10] 101 % of control | [14] 91 % of control | dose: 400.0 mg/kg/injection, schedule: Q04DX003 (ip), vehicle: saline with Tween-80 93 % of control
